From patent publication US20190233287A1, “Methods To Prepare Haloamines Using At Least One Solid Reactant And Products Made Therefrom” (Buckman Laboratories International, Inc., priority 2018, published 2019)

How the values were obtained:
[1] = Chlorine content, MCA content and pH of solutions, measured at once and again after 1 hour; assay type: physicochemical; conditions: 0.1 wt % Dantochlor aqueous solution, pH 11.2, measured instantly
Description: In this experiment the chlorine-releaser was granular Dantochlor (DCDMH), and the ammonium source was BUSPERSE 2454 (already in the form of an aqueous ammonium sulfate). A one liter aqueous solution containing 0.1 wt % Dantochlor was prepared. This aqueous solution was adjusted to a pH of 11.2 using NaOH (50%).
A molar equivalent amount of BUSPERSE 2454 was ±0.7 ml for a one liter solution. A 30% molar overdosage was used and thus, 1 ml of BUSPERSE 2454 was added to the aqueous solution of Dantochlor.

[2] = Chlorate ion concentration by Ion Chromatography; assay type: physicochemical; conditions: aqueous solutions of the Dantochlor product (1.5-72 ppm); detection limit 0.5 ppm
Description: The chlorate ion concentration was also analyzed for various aqueous solutions of the Dantochlor product (1.5-72 ppm); chlorate ion was not detected above the method's detection limit of 0.5 ppm.

[3] = weak acid; cited from earlier work

For CC1(C)C(=O)N(Cl)C(=O)N1Cl [Dantochlor, dichlorodimethylhydantoin], the “Free Cl2” value [1] was 274 ppm Cl2, the “Total Cl2” value [1] was 600 ppm Cl2 and the chlorate ion concentration [2] was under 0.5 ppm.

In the case of OCl [HOCl, hypochlorous acid], the pKa [3] is given as 7.5.
